Literature values as cited in US20090170816A1, “COMBINATION COMPRISING SQUALENE, A PHOSPHOLIPID AND AN OMEGA 3 FATTY ACID FOR THE TREATMENT OF CANCER” (FARMALEIS S.L., priority 2005, published 2009).

What was measured:
Colon cancer = conditions: Table 1, source Carcinogenesis vol. 19 no. 2 pp. 287-290, 1998
[1] = tested on: chemically-induced lung tumours; conditions: compared to animals not receiving squalene

CC(C)=CCC/C(C)=C/CC/C(C)=C/CC/C=C(\C)CC/C=C(\C)CCC=C(C)C [Squalene]
Survival percentage (Colon cancer): 50% ^(1)
incidence of tumours [1]: lower incidence of tumours
multiplicity of tumours [1]: lower multiplicity
volume of tumours [1]: smaller volume
